Measurements reported in paper PMC8961551, “Potential Anticancer Agents against Melanoma Cells Based on an As-Synthesized Thiosemicarbazide Derivative” (Biomolecules, 2022).
Like-named read-outs stand apart in the source and are kept apart here.

Legend:
[1] = system: gastric cancer cell line MKN74; design: method as in PMID 22741788; conditions: MKN74 gastric cancer cells ref 9; cited from earlier work
catalase (CAT) = assay: qRT-PCR relative mRNA expression, CAT; type: cell-based, human; conditions: for CAT expression change: G-361; for Relative mRNA expression level CAT (RQ): G-361, 48 h incubation, RQ = 2^-ΔΔCt, mean ± SD, control 1.016
Procedure: […] cell line was seeded into 6-well plates in the concentration of 4 × 10^5 cells/well. Thiosemicarbazide derivatives were added when 70–80% of confluence was achieved. After 48 h of incubation, 1 mL of TRIzol™ Reagent (Invitrogen, Carlsbad, CA, USA) was added to lyse the cells. Lysates were centrifuged for 5 min at 12,000× g at 4 °C, and clear supernatants were processed according to the manufacturer’s protocol. Then, reverse transcription was performed using NG dART RT-PCR kit (EURx, Gdańsk, Poland) and a Mastercycler gradient thermocycler (Eppendorf, Hamburg, Germany). Thermal profile of the reaction: 10 min at 25 °C, then 50 min at 50 °C, and 5 min at 85 °C. mRNA levels of the genes DHODH, 18SRNA, and BACT were assessed using TaqMan Fast Advanced Master Mix (ThermoFisher, Waltham, MA, USA). mRNA levels of the following genes: CAT, SOD2,18SRNA TBP were assessed using PowerUp SYBR Green Master Mix (ThermoFisher, Waltham, MA, USA) in a 7500 Fast Real-Time PCR System (ThermoFisher, Waltham, MA, USA). Thermal profile of the reactions performed: 20 s at 95 °C, followed by 40 cycles of 3 s at 95 °C and 30 s at 60 °C. The reaction was carried out in triplicates. Relative expression of the tested genes was determined by qRT-PCR and the ΔΔCt method. The statistical analysis was performed with RQ values (relative quantification, RQ = 2^−∆ΔCt).

melanoma line G-361 [2] = assay: Intracellular thiol / reduced glutathione (GSH) content, VB-48 vitality assay; type: cell-based, human; conditions: G-361, 24 h, compound at IC50 concentration, representative histogram; quadrant not defined in legend
Procedure: Analyses of the levels of cellular thiols were performed using NC 3000 system (Chemometec., Lillerød, Denmark) according to the manufacturer’s protocol for the cell vitality assay. The G-361 cells were seeded in 12-well culture plates at a density of 1 × 10^5 cell/mL and the tested compounds in concentrations corresponding to IC50 value were added when 70–80% of confluence was achieved. The cells were counted, and suspended in 1 mL of culture medium. A representative sample of 190 uL was pipetted into the new Eppendorf tubes and 10 µL of Solution 5 (which contains acridine orange (AO) that stains all nucleated cells; PI which stains dead cells only; and VitaBright-48 TM ([…]) which stains viable cells in an intensity-dependent manner reliant on the level of thiols) was added to the cell suspension. Next, the stained cells were loaded into 8-chamber NC-Slides A8™ (Chemometec., Lillerød, Denmark) and measured using the Vitality (VB-48) Assay protocol in the NC-3000 image cytometer. The experiment was performed three times with three replicates.

[3] = system: BJ normal fibroblast cell line; assay: MTT cytotoxicity, BJ normal fibroblasts; type: cell-based, human; conditions: for toxic to normal fibroblasts (MTT test): BJ, concentration range used; for IC50: MTT test
Procedure: (§1) Biological studies were performed on human malignant melanoma G-361 (ATCC CRL-1424) cell lines and human fibroblast BJ (ATCC® CRL-2522™) cell lines purchased from the American Type Culture Collection (ATCC, Manassas, VA USA). The G-361 cell lines were maintained in McCoy’s medium (Corning, NY, USA), and the fibroblast BJ cell line was cultured in EMEM (Corning, NY, USA). All media were supplemented with 10% heat-inactivated fetal bovine serum (PAN-Biotech, Aidenbach, Germany), 100 U/mL penicillin, 100 μg/mL streptomycin and 0.25 μg/mL amphotericin B (Sigma-Aldrich, St. Louis, MO, USA). Cultures were maintained at 37 °C in a humidified atmosphere of 95% air and 5% CO2. The experiments were performed using cells from passage 5 to 10.
(§2) The cytotoxicity of the new compounds was evaluated against both the G-361 and BJ cell lines. Cells were seeded into 96-well plates at a density of 3 × 10^4 cells/well and 2 × 10^4 cells/well. After 24 h of incubation, when 70–80% confluence was reached, the culture medium was removed and replaced with the fresh one containing the tested compounds in the concentration range of 10, 25, 50, 75, 100, 125 and 250 μM. Cells were cultured at 37 °C in the presence of 5% air with CO2 for another 24 h. The cytotoxicity of the test compounds was evaluated by the MTT colorimetric assay, based on the ability of live cells to convert yellow soluble tetrazolium salts (3-[4,5-dimethylthiazol-2-yl]- 2,5-diphenyltetrazolium bromide, MTT) to purple insoluble formazan by cellular dehydrogenase. After 24 h of incubation with solutions of the test compounds, 4 mg/mL MTT solution (Thermo Scientific, Waltham, MA, USA) was added to the cell cultures and incubation was continued for 4 h at 37 °C. The MTT medium was then removed, and the resulting crystals were dissolved in 200 µL of DMSO. The solution was measured for absorbance at 570 nm using a Power Wave xs spectrophotometric plate reader, BioTek Instruments (Winooski, VT, USA). The experiment was performed three times with three replicates for each concentration. IC50 values were determined using the AAT Bioquest IC50 calculator.

G-361 melanoma = assay: MTT cytotoxicity, G-361 melanoma; type: cell-based, human; conditions: for cytotoxic to melanoma cells (MTT test): G-361, concentration range used; for IC50: MTT test, 24 h treatment, G-361 melanoma
Procedure: as §1, §2

melanoma line G-361 [4] = assay: Two-step cell cycle analysis (DAPI, image cytometry); type: cell-based, human; conditions: G-361, 24 h, IC50 concentration
Procedure: Cell-cycle assays was performed using NC 3000 system (Chemometec., Lillerød, Denmark) according to manufacturer’s protocol for the two-step cell cycle analysis. The G-361 cells were seeded in 12-well plates at a density of 1 × 10^5 cells/well, and the tested compounds with concentration IC50 were added when 70–80% of confluence was achieved. After 24 h of incubation with tested compounds, the cells were washed with PBS and thoroughly resuspended in 250 μL lysis buffer supplemented with 10 μg/mL DAPI. After 5 min incubation at 37 °C, cells were mixed with 250 μL stabilization buffer and loaded into the 8-chamber slide NC-Slide A8 (Chemometec., Lillerød, Denmark). Cellular fluorescence was quantified using a NucleoCounter® NC-3000™ image cytometer (Chemometec., Lillerød, Denmark). The obtained DNA content histograms were used to demarcate different phases of the cell cycle in tested samples. The experiments were performed three times with three replicates.

[5] = 24 h treatment, BJ normal fibroblasts, concentration range 10-250 µM, read-out: IC50 BJ
[6] = BJ fibroblasts, further analysis, value in parentheses after >250, read-out: IC50 BJ (value in parentheses)

| SMILES | effect on cell cycle [1] | CAT expression change (catalase (CAT)) | Relative mRNA expression level CAT (RQ) (catalase (CAT)) | GSH content analysis, quadrant Q1ll (melanoma line G-361 [2]) [%] | GSH content analysis, quadrant Q1lr (melanoma line G-361 [2]) [%] | GSH content analysis, quadrant Q1ul (melanoma line G-361 [2]) [%] | GSH content analysis, quadrant Q1ur (melanoma line G-361 [2]) [%] | toxic to normal fibroblasts (MTT test) [3] | IC50 [3, 5] [µM] | IC50 [3, 6] [µM] | cytotoxic to melanoma cells (MTT test) (G-361 melanoma) | IC50 (G-361 melanoma) [µM] | effect on cell cycle (melanoma line G-361 [4]) | IC50 ([3]; Homo sapiens, Fibroblast, 24 h treatment, BJ normal fibroblasts, concentration range 10-250 µM, read-out: IC50 BJ) [µM] | IC50 ([3]; Homo sapiens, Fibroblast, BJ fibroblasts, further analysis, value in parentheses after >250, read-out: IC50 BJ (value in parentheses)) [µM] | IC50 (G-361 melanoma; Homo sapiens) [µM] |
| --- | --- | --- | --- | --- | --- | --- | --- | --- | --- | --- | --- | --- | --- | --- | --- | --- |
| O=C(COc1ccc(Cl)cc1Cl)NNC(=S)Nc1cccc2ccccc12 [PK9, 1-(2,4-dichlorophenoxy)acetyl-4-(1-naphtyl)thiosemicarbazide] | inhibited the cell cycle in S and G2 phases | reduction | 0.354 ± 0.022 | 3 | 41 | 26 | 30 | not toxic | > 250 | 894 | cytotoxic | 113 ± 4 | no cell cycle arrest was observed | – | – | – |
| CSc1ccc(NC(=S)NNC(=O)COc2ccc(Cl)cc2Cl)cc1 [PK2, 1-(2,4-dichlorophenoxy)acetyl-4-(4-metylothiophenyl)thiosemicarbazide] | – | reduction | 0.107 ± 0.013 | 3 | 44 | 30 | 23 | not toxic | – | – | cytotoxic | – | – | > 250 | 828 | 108 ± 6 |
| O=C(COc1ccc(Cl)cc1Cl)NNC(=S)Nc1ccccc1I [PK6, 1-(2,4-dichlorophenoxy)acetyl-4-(2-iodophenyl)thiosemicarbazide] | – | increased | 2.691 ± 0.127 | 4 | 46 | 28 | 22 | not toxic | > 250 | 631 | cytotoxic | 112 ± 4.76 | – | – | – | – |
